From PubChem BioAssay (NCI)
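All cell lines were grown in 96-well plates and treated with compound for 48 hours. Abbreviation: GI50, concentration required for 50% inhibition of growth. TGI denotes the concentration required for complete inhibition of growth.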

Tests used:
Test in all cases: inhibition of tumour cell growth, NCI panel, 48 h
A498 renal = test system: A498 renal
CCRF-CEM leukemia = test system: CCRF-CEM leukemia
DU-145 prostate = test system: DU-145 prostate
HT29 colon = test system: HT29 colon
OVCAR-8 ovarian = test system: OVCAR-8 ovarian
RXF 393 renal = test system: RXF 393 renal
SK-MEL-2 melanoma = test system: SK-MEL-2 melanoma
SK-OV-3 ovarian = test system: SK-OV-3 ovarian
SW-620 colon = test system: SW-620 colon
U251 CNS = test system: U251 CNS

SMILES | TGI (A498 renal) [µM] | TGI (CCRF-CEM leukemia) [µM] | TGI (DU-145 prostate) [µM] | TGI (HT29 colon) [µM] | TGI (OVCAR-8 ovarian) [µM] | TGI (RXF 393 renal) [µM] | TGI (SK-MEL-2 melanoma) [µM] | TGI (SK-OV-3 ovarian) [µM] | TGI (SW-620 colon) [µM] | TGI (U251 CNS) [µM] | GI50 (A498 renal) [µM] | GI50 (CCRF-CEM leukemia) [µM] | GI50 (DU-145 prostate) [µM] | GI50 (HT29 colon) [µM] | GI50 (OVCAR-8 ovarian) [µM] | GI50 (RXF 393 renal) [µM] | GI50 (SK-MEL-2 melanoma) [µM] | GI50 (SK-OV-3 ovarian) [µM] | GI50 (SW-620 colon) [µM] | GI50 (U251 CNS) [µM]
CC(NC1=NCCO1)c1cccc([N+](=O)[O-])c1 (centres undefined) | > 100 | > 100 | > 100 | > 100 | > 100 | > 100 | > 100 | > 100 | > 100 | > 100 |  |  |  |  |  |  |  |  |  | 
O=C1CCC2(CC1CCSc1ccccc1)OCCO2 (centres undefined) | > 100 | > 100 | > 100 | > 100 | > 100 | > 100 | > 100 | > 100 | > 100 | > 100 |  |  |  |  |  |  |  |  |  | 
C=C1C(=O)O[C@H]2C/C(C)=C/CC/C(C)=C/CC[C@@](C)(O)[C@@H](I)C[C@@H]12 | 32 | 5.4 | 22.2 | 26.8 | 5.74 | 13.2 | 25.8 | 29.8 | 19.8 | 33.4 |  |  |  |  |  |  |  |  |  | 
Cc1nccn1S(=O)(=O)c1ccc(Br)cc1Br | > 100 | 98.3 | > 100 | > 100 | > 100 | 76.3 | 55 | > 100 | > 100 | > 100 |  |  |  |  |  |  |  |  |  | 
Cc1ccc(-n2c(O)c3c(N)n[nH]c3c(C#N)c2=O)cc1 | > 100 | > 100 | > 100 | > 100 | > 100 | > 100 | > 100 | > 100 | > 100 | > 100 |  |  |  |  |  |  |  |  |  | 
CCOC(=O)c1c2c(n(-c3ccc(OC)cc3)c1C)C(=O)C(=O)c1ccccc1-2 | 3.97 | > 100 | 3.06 | > 22.7 | 2.76 | 4.05 | > 21.8 | 6.03 | 8.09 | 2.63 | 1.76 |  |  |  |  |  |  |  |  | 
Cc1cn(CC2=NCCCN2)c(=O)[nH]c1=O | > 100 | > 100 | > 100 | > 100 | > 100 | > 100 | > 100 | > 100 | > 100 | > 100 |  |  |  |  |  |  |  |  |  | 
COC(=O)c1ccc(CCc2cc(O)ccc2O)cc1 | > 96.7 | > 26.8 | > 100 | > 79.9 | > 52.7 | 20.9 | 55.6 | > 78 | 29.7 | 33.2 |  |  |  |  |  |  |  |  |  | 
Nc1ccc(-c2nc3cc(F)ccc3s2)cc1I | 31.2 | > 100 | > 100 | > 100 | 42.4 | 31.3 | 50.6 | 32.9 | > 100 | 26.8 |  |  |  |  |  |  |  |  |  | 
C1#Cc2ccccc2OCCOc2ccccc2C#Cc2ccccc2OCCOc2ccccc21 | 37.8 | 36.3 | > 100 | > 100 | 28.3 | 35.4 | > 100 |  | > 100 | 28.1 |  |  |  |  |  |  |  |  |  | 
Nc1ccccc1NC(=O)CCCCCCC(=O)Nc1ccc2c(c1)/C(=C/c1ccc[nH]1)C(=O)N2 | > 100 | > 100 | > 100 | > 100 | > 100 | > 100 | > 100 | > 100 | > 100 | > 100 | 3.17 | 0.419 | 7.06 | > 100 | 5.59 | > 100 | 5.73 | 6.72 | 40.8 | 1.08
Cc1cccc2nc3cccc(C(=O)NCCC[N+](C)(CCCNC(=O)c4cccc5nc6cccc(C)c6nc45)Cc4c([N+](=O)[O-])ncn4C)c3nc12 | > 1100 | > 1100 | > 1100 | 96.5 | > 1100 | > 1100 | > 1100 | > 1100 | > 1100 | > 1100 | > 1100 |  | 20.8 | 1.96 | 4.44 | 339 | 260 | > 1100 | 49.3 | 18.2
O=C(/C=C/c1ccc(-c2ccccc2)cc1)NCc1ccc(C(=O)NCCc2c[nH]c3ccccc23)cc1 | 80.4 | 32.1 | > 100 | 29.3 | > 100 | > 100 | > 100 | 35.2 | > 100 | > 100 |  |  |  |  |  |  |  |  |  | 
C=CC(C)(C)N[C@@H](C(=O)N1CCC[C@H]1c1nc(-c2nc(C(=O)OCC=C(C)C)c(C)o2)c(C)o1)C(C)C | 39.4 | 41.8 | 34 | 46.1 | 65 | 91.8 | 73.5 | 86.8 | 53.8 | 45.1 |  |  |  |  |  |  |  |  |  | 
O=C(Nc1nnc(-c2ccccc2)o1)C(SC(=S)N1CCOCC1)c1ccccc1 (centres undefined) | 89.6 | > 100 | > 100 | > 100 | > 100 | > 100 | > 100 | > 100 | > 100 | > 100 |  |  |  |  |  |  |  |  |  | 
O=C1CCCC2=C1C(c1ccc3c(c1)OCO3)Nc1ccc3ccccc3c12 (centres undefined) | > 100 | > 100 | > 100 | > 100 | > 100 | > 100 | > 100 | > 100 | > 100 | > 100 |  |  |  |  |  |  |  |  |  | 
